# Numbering of substitutions follows the chain as printed.
# Assays:
# S1P4 [1] = biological target: T1, S1P4 (Homo sapiens, UniProt O95977, E122Q); test: […]GTPγS binding assay at a single […] concentration (weak agonist); format: cell-based; conditions: read-out: % stimulation over basal at 10 μM
# T1 construct: gene S1PR4; HA-S1P4(E3.29(122)Q)-Gαi1(C351I) fusion in CHO-K1 membranes, pertussis toxin treated; with Gαi1(C351I) (fused)
# T1 sequence (O95977 1-384 E122Q): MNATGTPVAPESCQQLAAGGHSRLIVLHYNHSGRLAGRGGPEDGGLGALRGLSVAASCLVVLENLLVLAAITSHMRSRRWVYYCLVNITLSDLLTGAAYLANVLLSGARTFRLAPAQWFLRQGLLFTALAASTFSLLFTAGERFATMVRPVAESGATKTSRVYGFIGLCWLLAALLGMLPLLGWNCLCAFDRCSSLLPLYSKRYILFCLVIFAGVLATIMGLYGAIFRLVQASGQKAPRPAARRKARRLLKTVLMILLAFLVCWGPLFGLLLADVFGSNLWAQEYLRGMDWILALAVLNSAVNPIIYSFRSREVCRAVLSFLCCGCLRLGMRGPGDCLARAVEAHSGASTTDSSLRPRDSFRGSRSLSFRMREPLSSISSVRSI
# S1P4 [2] = biological target: T2, S1P4 (Homo sapiens, UniProt O95977); test: […]GTPγS binding assay, CHO-K1 membranes; format: biochemical
# T2 construct: gene S1PR4
# T2 sequence (O95977 1-384): T1 sequence (O95977 1-384 E122Q) with Q122E
activation at 10 µM (S1P4 [1]) [%],SMILES,EC50 (S1P4 [2]) [nM]
~19,CCCCCCCCCCCCCCCC(=O)OC[C@@H](O)COP(=O)(O)O [16:0 LPA],
,"CCCCCCCCCCCCC/C=C/[C@@H](O)[C@@H](N)COP(=O)(O)O [S1P, Sphingosine-1-phosphate]",355 ± 155

# Reference: publication PMC514652, “A single amino acid determines preference between phospholipids and reveals length restriction for activation ofthe S1P4 receptor” (BMC Biochemistry, 2004)
